“And” between values parts separate entries of the source, which are not always exact repeats. Equal values may be shown once. “Also recorded” adds a separate entry of the source.
What was measured:
[1] = test system: stage 2 neural stem cells; assay: factor criticality analysis (dynamic profile analysis) of stage 3 recipe; type: cell-based, human; parameters: unit not given here; settings: other five factors present; for expression level of DLX1 when the effector is removed: 220 with all six factors; for expression level of LHX6 when the effector is removed: 240 with all six factors; for expression level of ASCL1 when the effector is removed: 1650 with all six factors
Protocol: To assess the impact of the elimination of each validated factor, dynamic profile analysis was used and compared the expression level of genes of interest in absence of each finalized factor while others are present. […] In the stage 3 recipe, each of the six finalized factors were removed while the other five factors remained present and the expression levels of ASCL1, DLX1 and LHX6 were assessed compared to the presence of all six factors. […] As expected, in the absence of IGF-1, the value of DLX1 increases to 410, however, ASCL1 and LHX6 decreased to 1390 and 220, respectively.

[2] = test system: stage 2 neural stem cells (cells treated with stage 1 and stage 2 media); assay: HD-DoE experiment for stage 3 recipe, optimized for ASCL1; type: cell-based, human; settings: for factor contribution on expression of ASCL1: positive, model optimized for maximum expression of ASCL1 at 1700, FIG. 9
Protocol: To further guide the cells to medial ganglionic eminence progenitor fate, an additional HD-DoE experiment was performed for 3 days on cells that were treated with stage 1 and stage 2 media for total of 6 days prior to start of the experiment. This experiment included 13 effectors, LDN193189, A8301, GNF5837, AZD3147, GSI-XX, Takinib, PD0325901, PD173074, BLU9931, IGF-1, MHY1485, Purmorphamine and Prostratin. In this model, we focused on maximum expression of genes expressed in neuronal progenitor cells in medial ganglionic eminence (MGE) region including ASCL1, LHX6 and DLX1 (Silberberg et al. (2016) Neuron 92:59-74). When the model was optimized for maximum expression of ASCL1 at 1700, A8301, GSI-XX, Purmorphamine and Takinib, which is an inhibitor of TAK1 pathway, had the highest factor contributions, 18.1, 14.1, 12.7 and 10.1 respectively. […]

[3] = test system: human pluripotent stem cells; assay: additional HD-DoE experiment for stage 1 (forebrain differentiation from pluripotency), optimized for FEZF2; type: cell-based; settings: dynamic profile, FIG. 6
Protocol: To identify the recipe for stage 1 of differentiation, 96 different combinations of effectors generated using Design-of-Experiments compression through D-optimality were robotically prepared. The effector combinations were prepared in a basal media and were subsequently added to the cells, which were then allowed to differentiate. Three days later RNA extraction was performed, and gene expression was obtained using quantitative PCR analysis. The data were normalized and modeled using partial least squares regression analysis to the effector design, resulting in the generation of gene-specific models, which after model tuning for maximal Q2 predictive power, provided explanation of the effectors ability to control the expression of individual genes, combinatorially, and individually. Solutions within the tested space could then be explored to address desirability.
To further enhance the conditions for forebrain differentiation from pluripotency, an additional HD-DoE experiment was performed. Additional gene regulatory models were obtained that were used for preparation of the differentiation protocol. The factors in this experiment included LDN193189, PD173074, BLU9931, Purmorphamine, SC79, MK2206, ZM336372, PD0325901, CHIR99021, XAV939, UCLA-GP130, Tofacitinib and GO6983. […] Dynamic profile analysis was also used to assess the interaction between the effectors.

[4] = test system: forebrain-committed neural stem cells (stage 1 neural stem cells); assay: HD-DoE 12-factor experiment for stage 2 recipe, optimized for NKX2-1; type: cell-based, human; settings: for impact on expression of NKX2-1: model maximized for NKX2-1 / dynamic profile, FIG. 7 and 8
Protocol: To further guide the differentiation of forebrain-committed neural stem cells to ventral forebrain neural stem cells at stage 2, a HD-DoE experiment was performed for 3 days after termination of stage 1 treatment. At this time, we focused on maximum expression of NKX2-1 that is expressed in ventral forebrain region and minimum expression of PAX6 that is expressed in dorsal forebrain region. This 12-factor experiment included LDN193189, BMP7, PD0325901, MK2206, A8301, XAV939, CHIR99021, Purmorphamine, SANT-1, AGN193109, TTNPB and GSI-XX.

MGE progenitor cells = assay: HD-DoE 12-factor experiment for stage 4 recipe, optimized for MEF2C; type: cell-based, human
From the text: These effectors are small molecules or proteins. They are commonly used during stepwise differentiation of stem cells to specific fates. The choice of the effectors was based on current literature on neural induction in forebrain region of developing brain and differentiation of stem cells to neural progenitors.
To evaluate the effectors, experiments with at least 8 factors were designed that can assess the response of cells to 48 or more different combinations of effectors in a range of concentrations. To analyze the models, we focused on expression of genes involved in development and patterning of the forebrain interneurons maturation including LHX6 (Yuan et al. (2018) Elife, 7:e37382), DLX5 (Wang et al. (2010) J. Neuroscience 30:5334-5345), ASCL1 (Shi et al. (2016) J. Biol. Chem. 291:13560-13570). At later stages we focused on interneuron maturation genes including Parvalbumin and absence of somatostatin (Horn and Nicoll (2018) Proc. Natl. Acad. Sci. 115:589-594). The impacts of each effector on gene expression level are defined by a parameter called factor contribution that is calculated for each effector during the modeling.
To identify the recipe of stage 4 of differentiation, 48 different combinations of effectors generated using Design-of-Experiments compression through D-optimality were robotically prepared. The effector combinations were prepared in a basal media and were subsequently added to the cells, which were then allowed to differentiate. Three days later RNA extraction was performed, and gene expression was obtained using quantitative PCR analysis. The data was normalized and modeled using partial least squares regression analysis to the effector design, resulting in the generation of gene-specific models, which after model tuning for maximal predictive power, provided explanation of the effectors ability to control the expression of individual genes, combinatorically, and individually. Solutions within the tested space could then be explored to address desirability. […] Valproic Acid can inhibit histone deaceylases and increase γ-aminobutyric acid (GABA). […] GDNF is the […] Glial cell line-derived neurotrophic factor and can activate the GDNF pathway.
To find the set of factors that have the potential to optimize MEF2C in this experiment, a new assessment was done through dynamic profile analysis with focus on maximal expression of MEF2C (FIG. 20).

[5] = test system: human pluripotent stem cells; assay: HD-DoE 12-factor experiment for stage 1 recipe, gene expression by quantitative PCR after 3 days; type: cell-based
From the text: This example utilizes a method of High-Dimensional Design of Experiments (HD-DoE), as previously described in Bukys et al. (2020) […] 23:101346. The method employs computerized design geometries to simultaneously test multiple process inputs and offers mathematical modeling of a deep effector/response space. The method allows for finding combinatorial signaling inputs that control a complex process, such as during cell differentiation. It allows testing of multiple plausible critical process parameters, as such parameters impact output responses, such as gene expression. Because gene expression provides hallmark features of the phenotype of, for example, a human cell, the method can be applied to identify, and understand, which signaling pathways control cell fate. In the current example, the HD-DOE method was applied with the intent to find conditions for induction of […] neural progenitor-expressed genes, directly from the pluripotent stem cell state. To develop the recipe for each stage, the impact of agonists and antagonists of multiple signaling pathways (herein called effectors) on the expression of two sets of 53 pre-selected genes, after a 3-day treatment, has been tested and modeled. These effectors are small molecules or proteins that are commonly used during stepwise differentiation of stem cells to specific fates. Choice of the effectors were based on current literature on neural induction in forebrain region of developing brain and differentiation of stem cells to neural progenitors. To test the effectors, experiments with at least 8 factors were designed that can assess the response of cells to 48 or more different combinations of effectors in a range of concentrations. To analyze the models, we focused on expression of genes involved in development and patterning of the anterior neuroectoderm and forebrain including OTX2 (Hoch et al. (2015) Cell Reports 12:482-494), SIX3 (Lagutin et al. (2003) Genes & Development 17:368-379) and FEZF2 (Zhang et al. (2014) Development 141:4794-[…]). At later stages we focused on dorsoventral patterning of telencephalon and gene expressed in ventral forebrain including NKX2-1 and absence of PAX6 which is a dorsal forebrain marker (Stoykova et al. (2000) J. Neurosci. 20:8042-8050). The impact of each effector on gene expression level is defined by a parameter called factor contribution that is calculated for each effector during the modeling. To identify the recipe for stage 1 of differentiation, 96 different combinations of effectors generated using Design-of-Experiments compression through D-optimality were robotically prepared. The effector combinations were prepared in a basal media and were subsequently added to the cells, which were then allowed to differentiate. Three days later RNA extraction was performed, and gene expression was obtained using quantitative PCR analysis. […] Solutions within the tested space could then be explored to address desirability. Optimizing for maximal expression of SIX3 at 3300 and FEZF2 1355 expression values led to robust solutions. This model was derived from testing 12 effectors including AGN193109, LDN193189, CHIR99021, XAV939, IGF2, Purmorphamine, 4-oxo-RA, TTNPB, SR11237, FGF8, PD0325901 and […]. […] The model was also optimized for maximum expression of FEZF2 separately at 3576 expression value to find any additional factors that can boost expression of forebrain genes. […] To find the set of factors that have the potential to optimize all 3 genes in this experiment, a new assessment was done through dynamic profile analysis with focus on maximal expression of OTX2, FEZF2 and SIX3.

[6] = dynamic profile analysis, FIG. 10
[7] = dynamic profile analysis, FIG. 4

Question: For `Cc1cccc(-c2nn(C(=S)Nc3ccccc3)cc2-c2ccnc3ccccc23)n1` [A8301], which “expression level of DLX1 when the effector is removed” value [1] is on record?
Answer: did not change significantly

Question: What about the “expression level of LHX6 when the effector is removed” value [1] of the same molecule?
Answer: did not change significantly

Question: And the “expression level of ASCL1 when the effector is removed” value [1]?
Answer: 1000

Question: And the “impact on expression of ASCL1” value [2, 6]?
Answer: positive trends; also recorded: Positive impact

Question: And the “impact on expression of DLX1” value [2, 6]?
Answer: did not have a significant negative impact

Question: And the “impact on expression of LHX6” value [2, 6]?
Answer: positive trends; also recorded: Positive impact

Question: And the “factor contribution on expression of ASCL1” value [2]?
Answer: 18.1 and 18

Question: Which “expression level of DLX1 when the effector is removed” value [1] does the source give for `Cc1ccc(NC(=O)Nc2cc(C(F)(F)F)ccc2F)cc1Nc1ccc2c(c1)NC(=O)/C2=C\c1ccc[nH]1` [GNF5837] here?
Answer: did not have a significant impact

Question: And the “expression level of LHX6 when the effector is removed” value [1]?
Answer: 160

Question: And the “expression level of ASCL1 when the effector is removed” value [1]?
Answer: 1300

Question: And the “factor contribution on expression of ASCL1” value [2]?
Answer: 9.4

Question: With `COc1ccc2c(c1)c(C1=C(c3c[nH]c4ccccc34)C(=O)NC1=O)cn2CCCN(C)C` [GO6983] as the molecule, how does the “impact on expression of FEZF2” value [3] read?
Answer: positive impact

Question: How did the “impact on expression of FEZF2” value [3] turn out when `NC1(c2ccc(-c3nc4ccn5c(=O)[nH]nc5c4cc3-c3ccccc3)cc2)CCC1` [MK2206] was run?
Answer: positive impact

Question: And the “impact on expression of NKX2-1” value [4]?
Answer: increase its expression level

Question: With `Cc1nn(-c2ccccc2)c(C)c1/C=N/N1CCN(Cc2ccccc2)CC1` [SANT-1] as the molecule, how does the “impact on expression of NKX2-1” value [4] read?
Answer: negative impact

Question: And the “factor contribution on expression of NKX2-1” value ([4]; negative role, model optimized for maximum expression of NKX2-1, FIG. 7)?
Answer: 26.3

Question: With `NC(=O)c1ccc(-c2nc(-c3ccc4c(c3)OCO4)c(-c3ccccn3)[nH]2)cc1` [SB431542] as the molecule, how does the “impact on expression of MEF2C” value (MGE progenitor cells; dynamic profile analysis, FIG. 20) read?
Answer: negative effect

Question: What about the “factor contribution on expression of MEF2C” value (MGE progenitor cells; significant negative effect, model optimized for maximal expression of MEF2C) of the same molecule?
Answer: 7.9

Question: How did the “impact on expression of NKX2-1” value [4] turn out when `C/C(=C\c1ccc(C(=O)O)cc1)c1ccc2c(c1)C(C)(C)CCC2(C)C` [TTNPB] was run?
Answer: negative impact

Question: And the “factor contribution, important input for high expression of SIX3” value ([5]; FIG. 2 legend, model optimized for maximum expression of SIX3 as printed)?
Answer: 23.7

Question: What about the “impact on expression of OTX2” value [5, 7] of the same molecule?
Answer: negative impact

Question: What about the “impact on expression of SIX3” value [5, 7] of the same molecule?
Answer: negative impact

Question: And the “factor contribution on expression of FEZF2” value ([5]; positive impact, model optimized for maximum expression of FEZF2)?
Answer: 24

Question: What about the “factor contribution on expression of SIX3” value ([5]; significant negative effect, model optimized for maximal expression of SIX3) of the same molecule?
Answer: 21

Question: What about the “factor contribution on expression of OTX2” value ([5]; significant negative impact, model of maximum expression of OTX2) of the same molecule?
Answer: 29 and 28.8

Question: Which results are given for `CCCn1/c(=N/C(=O)c2cccc(C(N)=O)c2)[nH]c2ccccc21` [Takinib]?
Answer: expression level of DLX1 when the effector is removed [1]: 180; expression level of LHX6 when the effector is removed [1]: 170; factor contribution on expression of ASCL1 [2]: 10.1

Reference: patent US20230332103A1, “Methods and Compositions for Generating Human Forebrain Neural Progenitor Cells and for Maturation Thereof to Parvalbumin+ Interneurons” (Trailhead Biosystems Inc., priority 2021, published 2023)
